Data reported in the RepoRT retention time repository (doi:10.1021/ac101825k).

Test: RP, Waters Symmetry C18, 100 × 2.1 mm; A: water + 0.1% formic acid, pH 3; B: acetonitrile + 0.1% formic acid, pH 3; gradient (min/%B) 0/5 24/95 29/95 29.1/5
Conditions: stereoisomer not certain

c1coc(CNc2ncnc3nc[nH]c23)c1 [Kinetin]
LC retention time: 6.57 min

Cc1cc(=O)oc2cc(OC3OC(C(=O)O)C(O)C(O)C3O)ccc12 (stereo unspecified) [4-Methylumbelliferylglucuronide]
LC retention time: 8.77 min

Cc1nccc2c1[nH]c1ccccc12 [Harmane]
LC retention time: 7.81 min

CCC1CN2CCc3cc(OC)c(OC)cc3C2CC1CC1NCCc2cc(OC)c(OC)cc21 (stereo unspecified) [Emetine]
LC retention time: 7.62 min

CN1CCc2cc3c(cc2C1C1OC(=O)c2c1ccc1c2OCO1)OCO3 (stereo unspecified) [Bicuculline]
LC retention time: 8.51 min

Oc1ccc(C=Cc2cc(O)cc(O)c2)cc1 [Resveratrol]
LC retention time: 11.5 min

CN1CCc2cccc3c2C1Cc1ccc(O)c(O)c1-3 (stereo unspecified) [Apomorphine]
LC retention time: 7.2 min

O=c1c(O)c(-c2ccc(O)c(O)c2)oc2cc(O)cc(O)c12 [Quercetin]
LC retention time: 12.2 min

CC1OC(OC2C(Oc3cc(O)c4c(c3)OC(c3ccc(O)cc3)CC4=O)OC(CO)C(O)C2O)C(O)C(O)C1O (stereo unspecified) [Naringin]
LC retention time: 10.5 min

COC1C=COC2(C)Oc3c(C)c(O)c4c(O)c(c(C=NN5CCN(C)CC5)c(O)c4c3C2=O)NC(=O)C(C)=CC=CC(C)C(O)C(C)C(O)C(C)C(OC(C)=O)C1C (stereo unspecified) [Rifampicin]
LC retention time: 15.1 min

CN1Cc2c(ccc3c2OCO3)C2C(O)Cc3cc4c(cc3C21)OCO4 (stereo unspecified) [Chelidonine]
LC retention time: 9.5 min

CCC1OC(=O)C(C)C(OC2CC(C)(OC)C(O)C(C)O2)C(C)C(OC2OC(C)CC(N(C)C)C2O)C(C)(O)CC(C)C(=O)C(C)C(O)C1(C)O (stereo unspecified) [Erythromycin]
LC retention time: 11.2 min

COc1c2ccoc2cc2oc(=O)ccc12 [Bergapten]
LC retention time: 14.5 min

O=c1c(O)c(-c2ccc(O)cc2)oc2cc(O)cc(O)c12 [Kaempferol]
LC retention time: 13.3 min

COc1cc(C=CC(=O)O)cc(OC)c1OC [3,4,5-Trimethoxycinnamic_acid]
LC retention time: 12.3 min

C=C(C)C1Cc2c(ccc3c2OC2COc4cc(OC)c(OC)cc4C2C3=O)O1 (stereo unspecified) [Rotenone]
LC retention time: 18 min

COc1ccccc1C(=O)O [o-Anisic acid]
LC retention time: 10.1 min

CC1OC(OC2C(c3c(O)cc(O)c4c(=O)cc(-c5ccc(O)cc5)oc34)OC(CO)C(O)C2O)C(O)C(O)C1O (stereo unspecified) [Vitexin-2''-O-rhamnoside]
LC retention time: 9.58 min

NC(Cc1c[nH]c2ccccc12)C(=O)O (stereo unspecified) [Tryptophan]
LC retention time: 4.07 min

NC(=O)c1ccc[n+](C2OC(COP(=O)(O)OP(=O)(O)OCC3OC(n4cnc5c(N)ncnc54)C(O)C3O)C(O)C2O)c1 (stereo unspecified) [Nicotinamide_dinucleotide]
LC retention time: 1.2 min

COc1cc(C=CC(=O)OCC[N+](C)(C)C)cc(OC)c1O [Sinapine]
LC retention time: 6.46 min

COC(=O)C1C2CC3c4[nH]c5cc(OC)ccc5c4CCN3CC2CC(OC(=O)c2cc(OC)c(OC)c(OC)c2)C1OC (stereo unspecified) [Reserpine]
LC retention time: 12.6 min

O=c1cc(-c2ccc(O)c(-c3c(O)cc(O)c4c(=O)cc(-c5ccc(O)cc5)oc34)c2)oc2cc(O)cc(O)c12 [Amentoflavone]
LC retention time: 14.2 min

O=c1c(-c2ccc(O)cc2)coc2cc(O)cc(O)c12 [Genistein]
LC retention time: 13.1 min

O=C(O)c1c[nH]c2ccccc12 [Indole-3-carboxylic_acid]
LC retention time: 10.5 min

Cc1cc2nc3cc(C)c(N)cc3[n+](-c3ccccc3)c2cc1N [Safranin]
LC retention time: 10.9 min

CC(C)C(NC(=O)Cc1c[nH]c2ccccc12)C(=O)O (stereo unspecified) [IAA-Val]
LC retention time: 12.1 min

COc1ccc2c(c1OC)C(=O)OC2C1c2c(cc3c(c2OC)OCO3)CCN1C (stereo unspecified) [S,R-Noscapine]
LC retention time: 10 min

COc1ccc2cc3[n+](cc2c1OC)CCc1cc2c(cc1-3)OCO2 [Berberine]
LC retention time: 9.9 min

Oc1cc(O)c2c(c1)OC(c1ccc(O)c(O)c1)C(O)C2 (single isomer, unassigned; (-)) [(-)-Epicatechin]
LC retention time: 7.82 min

COc1cc(O)c(CC=C(C)C)c(O)c1C(=O)C=Cc1ccc(O)cc1 [Xanthohumol]
LC retention time: 18.5 min

CC1NCCc2cc(O)c(O)cc21 (stereo unspecified) [Salsolinol]
LC retention time: 1.08 min

Oc1ccc(CC2NCCc3cc(O)c(O)cc32)cc1O (stereo unspecified) [Tetrahydropapaveroline]
LC retention time: 1.14 min

COc1ccc(-c2coc3cc(O)cc(O)c3c2=O)cc1 [Biochanin_A]
LC retention time: 16.1 min

NCCc1ccc(O)cc1 [Tyramine]
LC retention time: 8.45 min

NC(Cc1ccccc1)C(=O)O (stereo unspecified) [Phenylalanine]
LC retention time: 2.27 min

O=C(CCc1ccc(O)cc1)c1c(O)cc(O)cc1OC1OC(CO)C(O)C(O)C1O (stereo unspecified) [Phlorizin]
LC retention time: 11.1 min

CC1OC(OCC2OC(Oc3c(-c4ccc(O)c(O)c4)oc4cc(O)cc(O)c4c3=O)C(O)C(O)C2O)C(O)C(O)C1O (stereo unspecified) [Rutin]
LC retention time: 9.72 min

C=CC1CN2CCC1CC2C(O)c1ccnc2ccccc12 (stereo unspecified) [Cinchonine]
LC retention time: 3.47 min

Nc1ncnc2c1ncn2C1OC(CO)C(O)C1O (stereo unspecified) [Adenosine]
LC retention time: 1.52 min

COc1ccc(CC2c3cc(OC)c(OC)cc3CCN2C)cc1OC (stereo unspecified) [Laudanosine]
LC retention time: 8.39 min
